Activity calls are given as the source filed them. The calls are words filed in the database; no cut-off is given here.
Columns and labels:
Assay type in all cases: functional
Malme-3M = test: Growth inhibition of human MALME-3M cells after 48 hrs by cell counting analysis; details: at 10 µM
ACHN = test: Growth inhibition of human ACHN cells after 48 hrs by cell counting analysis; details: at 10 µM
SNB-75 = test: Growth inhibition of human SNB75 cells after 48 hrs by cell counting analysis; details: at 10 µM
NCI-H226 = test: Growth inhibition of human NCI-H226 cells after 48 hrs by cell counting analysis; details: at 10 µM
[1] = Antiproliferative activity against human breast cancer cells after 48 hrs by cell counting analysis; details: Cancer cell lines
EKVX = test: Growth inhibition of human EKVX cells after 48 hrs by cell counting analysis; details: at 10 µM
[2] = Antiproliferative activity against human non-small cell lung cancer cells after 48 hrs by cell counting analysis; details: Cancer cell lines
OVCAR-4 = test: Growth inhibition of human OVCAR4 cells after 48 hrs by cell counting analysis; details: at 10 µM
HCC 2998 = test: Growth inhibition of human HCC2998 cells after 48 hrs by cell counting analysis; details: at 10 µM
SF-539 = test: Growth inhibition of human SF539 cells after 48 hrs by cell counting analysis; details: at 10 µM
[3] = Antiproliferative activity against human ovarian cancer cells after 48 hrs by cell counting analysis; details: Cancer cell lines
[4] = Growth inhibition of human NCI-ADR-RES cells after 48 hrs by cell counting analysis; details: at 10 µM
[5] = Antiproliferative activity against human renal cancer cells after 48 hrs by cell counting analysis; details: Cancer cell lines
OVCAR-5 = test: Growth inhibition of human OVCAR5 cells after 48 hrs by cell counting analysis; details: at 10 µM
SNB-19 = test: Growth inhibition of human SNB19 cells after 48 hrs by cell counting analysis; details: at 10 µM
HL-60 = test: Growth inhibition of human HL60 cells after 48 hrs by cell counting analysis; details: at 10 µM
CCRF-CEM = test: Growth inhibition of human CCRF-CEM cells after 48 hrs by cell counting analysis; details: at 10 µM
SK-MEL-5 = test: Growth inhibition of human SK-MEL-5 cells after 48 hrs by cell counting analysis; details: at 10 µM
BT-549 = test: Growth inhibition of human BT549 cells after 48 hrs by cell counting analysis; details: at 10 µM
MDA-MB-468 = test: Growth inhibition of human MDA-MB-468 cells after 48 hrs by cell counting analysis
TK-10 = test: Growth inhibition of human TK10 cells after 48 hrs by cell counting analysis
HCT-116 = test: Growth inhibition of human HCT116 cells after 48 hrs by cell counting analysis; details: at 10 µM
PC-3 = test: Growth inhibition of human PC3 cells after 48 hrs by cell counting analysis; details: at 10 µM
[6] = Antiproliferative activity against human colon cancer cells after 48 hrs by cell counting analysis; details: Cancer cell lines
[7] = Antiproliferative activity against human prostate cancer cells after 48 hrs by cell counting analysis; details: Cancer cell lines
MDA-MB-231 = test: Growth inhibition of human MDA-MB-231 cells after 48 hrs by cell counting analysis; details: at 10 µM
UO-31 = test: Growth inhibition of human UO31 cells after 48 hrs by cell counting analysis; details: at 10 µM
[8] = Antiproliferative activity against human CNS cancer cells after 48 hrs by cell counting analysis; details: Cancer cell lines
RXF 393 = test: Growth inhibition of human RXF393 cells after 48 hrs by cell counting analysis; details: at 10 µM
OVCAR-3 = test: Growth inhibition of human OVCAR3 cells after 48 hrs by cell counting analysis; details: at 10 µM
CAKI-1 = test: Growth inhibition of human Caki1 cells after 48 hrs by cell counting analysis; details: at 10 µM
MCF7 = test: Growth inhibition of human MCF7 cells after 48 hrs by cell counting analysis; details: at 10 µM
SK-OV-3 = test: Growth inhibition of human SKOV3 cells after 48 hrs by cell counting analysis; details: at 10 µM
K562 = test: Growth inhibition of human K562 cells after 48 hrs by cell counting analysis; details: at 10 µM
LOX IMVI = test: Growth inhibition of human LOXIMVI cells after 48 hrs by cell counting analysis; details: at 10 µM
UACC-257 = test: Growth inhibition of human UACC257 cells after 48 hrs by cell counting analysis; details: at 10 µM
HOP-92 = test: Growth inhibition of human HOP92 cells after 48 hrs by cell counting analysis; details: at 10 µM
OVCAR-8 = test: Growth inhibition of human OVCAR8 cells after 48 hrs by cell counting analysis; details: at 10 µM
SF-268 = test: Growth inhibition of human SF268 cells after 48 hrs by cell counting analysis; details: at 10 µM
T47D = test: Growth inhibition of human T47D cells after 48 hrs by cell counting analysis; details: at 10 µM
UACC-62 = test: Growth inhibition of human UACC62 cells after 48 hrs by cell counting analysis; details: at 10 µM
U-251 = test: Growth inhibition of human U251 cells after 48 hrs by cell counting analysis; details: at 10 µM
SR = test: Growth inhibition of human SR cells after 48 hrs by cell counting analysis; details: at 10 µM
HCT-15 = test: Growth inhibition of human HCT15 cells after 48 hrs by cell counting analysis; details: at 10 µM
NCI-H23 = test: Growth inhibition of human NCI-H23 cells after 48 hrs by cell counting analysis
SK-MEL-28 = test: Growth inhibition of human SK-MEL-28 cells after 48 hrs by cell counting analysis; details: at 10 µM
MOLT-4 = test: Growth inhibition of human MOLT4 cells after 48 hrs by cell counting analysis; details: at 10 µM
M14 = test: Growth inhibition of human M14 cells after 48 hrs by cell counting analysis; details: at 10 µM
[9] = Antiproliferative activity against human melanoma cells after 48 hrs by cell counting analysis
SF-295 = test: Growth inhibition of human SF295 cells after 48 hrs by cell counting analysis; details: at 10 µM
A549 = test: Growth inhibition of human A549 cells after 48 hrs by cell counting analysis; details: at 10 µM
MDA-MB-435 = test: Growth inhibition of human MDA-MB-435 cells after 48 hrs by cell counting analysis; details: at 10 µM
[10] = Antiproliferative activity against human leukemia cells after 48 hrs by cell counting analysis
HOP-62 = test: Growth inhibition of human HOP62 cells after 48 hrs by cell counting analysis; details: at 10 µM
KM12 = test: Growth inhibition of human KM12 cells after 48 hrs by cell counting analysis; details: at 10 µM
HT-29 = test: Growth inhibition of human HT-29 cells after 48 hrs by cell counting analysis; details: at 10 µM
SN12C = test: Growth inhibition of human SN12C cells after 48 hrs by cell counting analysis; details: at 10 µM
NCI-H522 = test: Growth inhibition of human NCI-H522 cells after 48 hrs by cell counting analysis; details: at 10 µM
RPMI-8226 = test: Growth inhibition of human RPMI8226 cells after 48 hrs by cell counting analysis; details: at 10 µM
[11] = Growth inhibition of human NCI-322M cells after 48 hrs by cell counting analysis; details: at 10 µM
SW-620 = test: Growth inhibition of human SW620 cells after 48 hrs by cell counting analysis; details: at 10 µM
SK-MEL-2 = test: Growth inhibition of human SK-MEL-2 cells after 48 hrs by cell counting analysis; details: at 10 µM
IGROV-1 = test: Growth inhibition of human IGROV1 cells after 48 hrs by cell counting analysis; details: at 10 µM
[12] = read-out: LC50 (the source's name)

With `Cc1ccc(-c2csc(NC(=O)CCCl)n2)cc1` the “growth inhibition (GI)” value (Malme-3M) was 29.1%, the “growth inhibition (GI)” value (ACHN) was 45.1% and the “growth inhibition (GI)” value (SNB-75) was 34.6%. For the same molecule, the “growth inhibition (GI)” value (NCI-H226) was 22%, the GI50 [1] was 3.3 µM and the TGI [1] was 32.3 µM. For the same molecule, the CC50 [1, 12] was 62.1 µM, the “growth inhibition (GI)” value (EKVX) was 50.3% and the GI50 [2] was 6.3 µM. The TGI [2] was 20.3 µM, the CC50 [2, 12] was 61.5 µM and the “growth inhibition (GI)” value (OVCAR-4) was 81.5%. The “growth inhibition (GI)” value (HCC 2998) was 22.5%, the “growth inhibition (GI)” value (SF-539) was 25.2% and the GI50 [3] was 4.8 µM. The TGI [3] was 31.3 µM, the CC50 [3, 12] was 61.1 µM and the “growth inhibition (GI)” value [4] was 55.8%. The GI50 [5] was 2.8 µM, the TGI [5] was 12.5 µM and the CC50 [5, 12] was 39.3 µM. The “growth inhibition (GI)” value (OVCAR-5) was 29.3%, the “growth inhibition (GI)” value (SNB-19) was 73.1% and the “growth inhibition (GI)” value (HL-60) was 41.4%. The “growth inhibition (GI)” value (CCRF-CEM) was 88.3%, the “growth inhibition (GI)” value (SK-MEL-5) was 16.6% and the “growth inhibition (GI)” value (BT-549) was 72.3%. For the same molecule, the “growth inhibition (GI)” value (MDA-MB-468) was “Active”, the “growth inhibition (GI)” value (TK-10) was “Active” and the “growth inhibition (GI)” value (HCT-116) was 46.2%. For the same molecule, the “growth inhibition (GI)” value (PC-3) was 69.5%, the GI50 [6] was 3.2 µM and the TGI [6] was 11.9 µM. The CC50 [6, 12] was 39.2 µM, the GI50 [7] was 3.8 µM and the TGI [7] was 16.8 µM. The CC50 [7, 12] was 63.4 µM, the “growth inhibition (GI)” value (MDA-MB-231) was 53.5% and the “growth inhibition (GI)” value (UO-31) was 61.3%. It also gave a GI50 [8] of 4.8 µM, a TGI [8] of 17.6 µM and a CC50 [8, 12] of 50.2 µM. For the same molecule, the “growth inhibition (GI)” value (RXF 393) was 43.8%, the “growth inhibition (GI)” value (OVCAR-3) was 45.3% and the “growth inhibition (GI)” value (CAKI-1) was 55.6%. The “growth inhibition (GI)” value (MCF7) was 65.9%, the “growth inhibition (GI)” value (SK-OV-3) was 63% and the “growth inhibition (GI)” value (K562) was 21.1%. For the same molecule, the “growth inhibition (GI)” value (LOX IMVI) was 45.1%, the “growth inhibition (GI)” value (UACC-257) was 41.3% and the “growth inhibition (GI)” value (HOP-92) was 50.5%. The “growth inhibition (GI)” value (OVCAR-8) was 60.6%, the “growth inhibition (GI)” value (SF-268) was 46.3% and the “growth inhibition (GI)” value (T47D) was 55.2%. For the same molecule, the “growth inhibition (GI)” value (UACC-62) was 41.8%, the “growth inhibition (GI)” value (U-251) was 48.5% and the “growth inhibition (GI)” value (SR) was 88.5%. For the same molecule, the “growth inhibition (GI)” value (HCT-15) was 25.9%, the “growth inhibition (GI)” value (NCI-H23) was “Active” and the “growth inhibition (GI)” value (SK-MEL-28) was 31%. For the same molecule, the “growth inhibition (GI)” value (MOLT-4) was 43.3%, the “growth inhibition (GI)” value (M14) was 56.1% and the GI50 [9] was 4.2 µM. The TGI [9] was 13.4 µM, the CC50 [9, 12] was 44.3 µM and the “growth inhibition (GI)” value (SF-295) was 30.2%. For the same molecule, the “growth inhibition (GI)” value (A549) was 77.3%, the “growth inhibition (GI)” value (MDA-MB-435) was 36.9% and the GI50 [10] was 2 µM. For the same molecule, the TGI [10] was 21.5 µM, the CC50 [10, 12] was > 100 µM and the “growth inhibition (GI)” value (HOP-62) was 16.2%. For the same molecule, the “growth inhibition (GI)” value (KM12) was 82.4%, the “growth inhibition (GI)” value (HT-29) was 21% and the “growth inhibition (GI)” value (SN12C) was 33.2%. For the same molecule, the “growth inhibition (GI)” value (NCI-H522) was 41%, the “growth inhibition (GI)” value (RPMI-8226) was 80.9% and the “growth inhibition (GI)” value [11] was 55.9%. The “growth inhibition (GI)” value (SW-620) was 65.2%, the “growth inhibition (GI)” value (SK-MEL-2) was 54.2% and the “growth inhibition (GI)” value (IGROV-1) was 63.1%.

Source: ChEMBL document CHEMBL2150993, “Substituted thiazoles VII. Synthesis and antitumor activity of certain 2-(substituted amino)-4-phenyl-1,3-thiazole analogs” (2012)
